Test [1] deals with T1, PTPN2 (HiBIT-PTPN2 in 293T.109 cells) (Homo sapiens, UniProt P17706).
T1 construct: expressed in transfected cells; host or cells: 293T.109 (293T WT from ATCC)
T1 sequence (P17706 1-415): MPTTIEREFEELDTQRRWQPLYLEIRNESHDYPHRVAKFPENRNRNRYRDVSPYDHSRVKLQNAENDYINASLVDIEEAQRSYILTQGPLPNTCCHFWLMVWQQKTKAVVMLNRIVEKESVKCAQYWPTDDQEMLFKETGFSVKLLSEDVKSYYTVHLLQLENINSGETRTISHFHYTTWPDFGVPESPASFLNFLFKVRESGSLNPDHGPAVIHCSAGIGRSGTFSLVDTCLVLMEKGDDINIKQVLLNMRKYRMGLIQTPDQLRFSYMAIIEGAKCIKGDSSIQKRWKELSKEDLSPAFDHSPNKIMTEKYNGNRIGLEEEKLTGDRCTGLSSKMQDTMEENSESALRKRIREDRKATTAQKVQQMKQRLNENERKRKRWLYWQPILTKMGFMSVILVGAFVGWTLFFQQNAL
Description: HiBiT Degradation 293T.109 PTPN2 (Nano-Glo HiBiT Lytic Assay). The note with it: 24.0 hours. The class given is cell-based. An excerpt:
Dulbecco's modified Eagle medium (DMEM) without phenol red and fetal bovine serum (FBS) were purchased from Gibco (Grand Island, NY, USA). Nano-Glo® HiBIT Lytic Assay System was purchased from Promega (Madison, WI, USA). 293T.109 (HiBIT-PTPN2) cell line was generated by ectopically expressing PTPN2 with N-terminal HiBIT fusion tag in 293T WT cell line purchased from ATCC (Manassas, VA, USA). Cell culture flasks and 384-well microplates were acquired from VWR (Radnor, PA, USA).
PTPN2 degradation was determined based on quantification of luminescent signal using Nano-Glo® HiBIT Lytic Assay kit. Test compounds were added to the 384-well plate from a top concentration of 10 μM with 11 points, half log titration in duplicates. 293T.109 cells were added into 384-well plates at a cell density of 5000 cells per well. The plates were kept at 37° C. with 5% CO2 for 24 hours. The cells treated in the absence of the test compound were the negative control and the cells without Nano-Glo® HiBIT Lytic reagent were the positive control. After 24-hour incubation, Nano-Glo® HiBiT Lytic Assay reagents were added to the cells. Luminescence was acquired on EnVision™ Multilabel Reader (PerkinElmer, Santa Clara, CA, USA).

Another test has as its target T2, PTPN2 (B16F10.4 cells) (Mus musculus, UniProt Q06180).
T2 construct: HiBiT; host or cells: B16F10.4
T2 sequence (Q06180 1-406): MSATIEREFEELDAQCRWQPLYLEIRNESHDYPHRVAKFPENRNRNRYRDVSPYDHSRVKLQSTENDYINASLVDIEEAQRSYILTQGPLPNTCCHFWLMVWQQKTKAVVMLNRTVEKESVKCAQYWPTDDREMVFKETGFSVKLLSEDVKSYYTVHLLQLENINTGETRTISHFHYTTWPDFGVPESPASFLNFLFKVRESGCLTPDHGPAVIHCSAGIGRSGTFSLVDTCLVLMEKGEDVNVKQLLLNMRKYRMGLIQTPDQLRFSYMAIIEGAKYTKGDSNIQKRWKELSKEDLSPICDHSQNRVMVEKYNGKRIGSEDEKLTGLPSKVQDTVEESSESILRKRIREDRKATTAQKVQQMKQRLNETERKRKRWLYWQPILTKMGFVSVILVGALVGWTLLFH
Description: HiBiT Degradation B16F10.4 PTPN2. It is filed as cell-based. The note with it: 24.0 hours.

From patent US20250302815A1, “PROTEIN TYROSINE PHOSPHATASE TARGETING LIGANDS” (CALICO LIFE SCIENCES LLC, priority 2021, published 2025) come the findings set out here.

Some results are limits rather than exact numbers.

Consider `CC1(C)C[C@@H](Nc2cccc(-c3sc(C(=O)O)c(OCC(=O)O)c3Cl)c2)CCN1S(=O)(=O)Cc1cccc(NC(=O)N2CCC(c3ccc4c5c(cccc35)N(C3CCC(=O)NC3=O)C4=O)CC2)c1` (stereo partly drawn) [Example 205, 3-(carboxymethoxy)-4-chloro-5-[3-[[(4S)-1-[[3-[[4-[1-(2,6-dioxo-3-piperidyl)-2-oxo-benzo[cd]indol-S-yl]piperidine-1-carbonyl]amino]phenyl]methylsulfonyl]-2,2-dimethyl-4-piperidyl]amino]phenyl]thiophene-2-carboxylic acid], for which the DC50 (in test [1]; on PTPN2 (B16F10.4 cells)) was 50 to 200 nM in each case.
For the compound `CN(C(=O)CCN1CCC(Nc2cccc3c2CN(C2CCC(=O)NC2=O)C3=O)CC1)c1cccc(CS(=O)(=O)N2CCC(Nc3cccc(-c4sc(C(=O)O)c(OCC(=O)O)c4Cl)c3)CC2(C)C)c1` (stereo not drawn) [Example 71, 3-(carboxymethoxy)-4-chloro-5-(3-((1-((3-(3-(4-((2-(2,6-dioxopiperidin-3-yl)-1-oxoisoindolin-4-yl)amino)piperidin-1-yl)-N-methylpropanamido)benzyl)sulfonyl)-2,2-dimethylpiperidin-4-yl)amino)phenyl)thiophene-2-carboxylic acid], the values for the DC50 (in test [1]; at PTPN2 (B16F10.4 cells)) were 50 to 200 nM and at least 1000 nM, respectively.
For `Cn1c(=O)n(C2CCC(=O)NC2=O)c2ccc(C3CCN(C(=O)Nc4cccc(CS(=O)(=O)N5CCC(Oc6cccc(-c7sc(C(=O)O)c(OCC(=O)O)c7Cl)c6)CC5)c4)CC3)cc21` (stereo not drawn) [Example 103, 3-(Carboxymethoxy)-4-chloro-5-[3-[[1-[[3-[[4-[1-(2,6-dioxo-3-piperidyl)-3-methyl-2-oxo-benzimidazol-S-yl]piperidine-1-carbonyl]amino]phenyl]methylsulfonyl]-4-piperidyl]oxy]phenyl]thiophene-2-carboxylic acid] the same measures were 200 to 1000 nM and 50 to 200 nM.
For `Cn1c(=O)n(C2CCC(=O)NC2=O)c2ccc(C3CCN(C(=O)Nc4cc(CS(=O)(=O)N5CCC(Nc6cccc(-c7sc(C(=O)O)c(OCC(=O)O)c7Cl)c6)CC5)ccc4F)CC3)cc21` (stereo not drawn) [Example 104, 3-(carboxymethoxy)-4-chloro-5-[3-[[1-[[3-[[4-[1-(2,6-dioxo-3-piperidyl)-3-methyl-2-oxo-benzimidazol-5-yl]piperidine-1-carbonyl]amino]-4-fluoro-phenyl]methylsulfonyl]-4-piperidyl]amino]phenyl]thiophene-2-carboxylic acid] the same measures were 50 to 200 nM and below 50 nM.
For `Cn1c(=O)n(C2CCC(=O)NC2=O)c2ccc(N3CC(OCC(=O)Nc4cccc(CS(=O)(=O)N5CC[C@H](Nc6cccc(-c7sc(C(=O)O)c(OCC(=O)O)c7Cl)c6)CC5(C)C)c4)C3)cc21` (stereo partly drawn) [Example 107, 3-(carboxymethoxy)-4-chloro-5-[3-[[(4S)-1-[[3-[[2-[1-[1-(2,6-dioxo-3-piperidyl)-3-methyl-2-oxo-benzimidazol-5-yl]azetidin-3-yl]oxyacetyl]amino]phenyl]methylsulfonyl]-2,2-dimethyl-4-piperidyl]amino]phenyl]thiophene-2-carboxylic acid] the same measures were 50 to 200 nM and 200 to 1000 nM.
`Cn1nc(C2CCC(=O)NC2=O)c2ccc(CCC(=O)Nc3cccc(CS(=O)(=O)N4CCC(Nc5cccc(-c6sc(C(=O)O)c(OCC(=O)O)c6Cl)c5)CC4)c3)cc21` (stereo not drawn) [Example 157, 3-(carboxymethoxy)-4-chloro-5-[3-[[1-[[3-[3-[3-(2,6-dioxo-3-piperidyl)-1-methyl-indazol-6-yl]propanoylamino]phenyl]methylsulfonyl]-4-piperidyl]amino]phenyl]thiophene-2-carboxylic acid]: the DC50 (in test [1]; at PTPN2 (B16F10.4 cells)) was 200 to 1000 nM each time.
As for `CC1(C)C[C@@H](Nc2cccc(-c3sc(C(=O)O)c(OCC(=O)O)c3Cl)c2)CCN1S(=O)(=O)Cc1cccc(NC(=O)N2CCC(c3ccc4c(c3)n(C3CCOCC3)c(=O)n4C3CCC(=O)NC3=O)CC2)c1` (stereo partly drawn) [Example 159, 3-(carboxymethoxy)-4-chloro-5-(3-(((4S)-1-((3-(4-(1-(2,6-dioxopiperidin-3-yl)-2-oxo-3-(tetrahydro-2H-pyran-4-yl)-2,3-dihydro-1H-benzo[d]imidazol-5-yl)piperidine-1-carboxamido)benzyl)sulfonyl)-2,2-dimethylpiperidin-4-yl)amino)phenyl)thiophene-2-carboxylic acid], the 50% degradation concentration (DC50) (in test [1]; on PTPN2 (B16F10.4 cells)) was 200 to 1000 nM throughout.
For the compound `CC1(C)C[C@@H](Nc2cccc(-c3sc(C(=O)O)c(OCC(=O)O)c3Cl)c2)CCN1S(=O)(=O)Cc1cccc(NC(=O)COc2cccc3c2CN(C2CCC(=O)NC2=O)C3=O)c1` (stereo partly drawn) [Example 29, 3-(carboxymethoxy)-4-chloro-5-[3-[[(4S)-1-[[3-[[2-[2-(2,6-dioxo-3-piperidyl)-1-oxo-isoindolin-4-yl]oxyacetyl]amino]phenyl]methylsulfonyl]-2,2-dimethyl-4-piperidyl]amino]phenyl]thiophene-2-carboxylic acid], the DC50 (in test [1]; on PTPN2 (B16F10.4 cells)) was 200 to 1000 nM each time.
For `CC(C)(c1cccc(NC(=O)CCCCCCNC(=O)CNc2cccc3c2CN(C2CCC(=O)NC2=O)C3=O)c1)S(=O)(=O)N1CCC(Nc2cccc(-c3sc(C(=O)O)c(OCC(=O)O)c3Cl)c2)CC1` (stereo not drawn) [Example 40, 3-(carboxymethoxy)-4-chloro-5-[3-[[1-[1-[3-[7-[[2-[[2-(2,6-dioxo-3-piperidyl)-1-oxo-isoindolin-4-yl]amino]acetyl]amino]heptanoylamino]phenyl]-1-methyl-ethyl]sulfonyl-4-piperidyl]amino]phenyl]thiophene-2-carboxylic acid], the DC50 was 200 to 1000 nM in test [1] and at least 1000 nM at PTPN2 (B16F10.4 cells).
On the same counts, the results for `O=C(O)COc1c(C(=O)O)sc(-c2cccc(NC3CCN(S(=O)(=O)Cc4cccc(NC(=O)CCOCCOCCOCCCc5ccc6c(c5)CN(C5CCC(=O)NC5=O)C6=O)c4)CC3)c2)c1Cl` (stereo not drawn) [Example 19, 3-(carboxymethoxy)-4-chloro-5-(3-((1-((3-(3-(2-(2-(3-(2-(2,6-dioxopiperidin-3-yl)-1-oxoisoindolin-5-yl)propoxy)ethoxy)ethoxy)propanamido)benzyl)sulfonyl)piperidin-4-yl)amino)phenyl)thiophene-2-carboxylic acid] are 200 to 1000 nM and 200 to 1000 nM.
On the same counts, the results for `Cn1c(=O)n(C2CCC(=O)NC2=O)c2ccc(C3CCN(C(=O)Nc4cccc(CS(=O)(=O)N5CC[C@H](Nc6cccc(-c7sc(C(=O)O)c(OCC(=O)O)c7Cl)c6)CC5(C)C)c4F)CC3)cc21` (stereo partly drawn) [Example 125, 3-(carboxymethoxy)-4-chloro-5-[3-[[(4S)-1-[[3-[[4-[1-(2,6-dioxo-3-piperidyl)-3-methyl-2-oxo-benzimidazol-5-yl]piperidine-1-carbonyl]amino]-2-fluoro-phenyl]methylsulfonyl]-2,2-dimethyl-4-piperidyl]amino]phenyl]thiophene-2-carboxylic acid] are 50 to 200 nM and below 50 nM.
In the case of `CC1(C)C[C@@H](Nc2cccc(-c3sc(C(=O)O)c(OCC(=O)O)c3Cl)c2)CCN1S(=O)(=O)Cc1cccc(NC(=O)N2CCCN(c3ccc4c5c(cccc35)N(C3CCC(=O)NC3=O)C4=O)CC2)c1` (stereo partly drawn) [Example 164, 3-(carboxymethoxy)-4-chloro-5-(3-(((4S)-1-((3-(4-(1-(2,6-dioxopiperidin-3-yl)-2-oxo-1,2-dihydrobenzo[cd]indol-5-yl)-1,4-diazepane-1-carboxamido)benzyl)sulfonyl)-2,2-dimethylpiperidin-4-yl)amino)phenyl)thiophene-2-carboxylic acid], the DC50 in test [1] fell in the range of 200 to 1000 nM.
Consider `Cn1c(=O)n(C2CCC(=O)NC2=O)c2ccc(N3CCCC4(CN(C(=O)Nc5cccc(CS(=O)(=O)N6CC[C@H](Nc7cccc(-c8sc(C(=O)O)c(OCC(=O)O)c8Cl)c7)CC6(C)C)c5)C4)C3)cc21` (stereo partly drawn) [Example 141], for which the DC50 on PTPN2 (B16F10.4 cells) lay within 200 to 1000 nM.
